Measured values published in patent US20180030080A1, “Phosphoramidate nucleoside prodrug for treating viral diseases and cancer, processes for their preparation and their use” (ASAVI, LLC, priority 2016, published 2018).
Read-outs that look alike come from different tables or passages of the source.

Columns and labels:
[1] = test system: wild-type HIV-1; conditions: cited from earlier work
[2] = test system: HCV replicon gT1b; experiment: HCV replicon assay, genotype gT1b; format: cell-based; conditions: Hepatitis C virus
Description: (§1) Anti-HCV activity (EC50) and cytotoxicity (CC50) of prodrugs of general formula 1. The HCV replicon assay was used to determine the antiviral activity of chemotherapeutic agents of general formula 1 (test compounds). Sovaldi (PSI-7977) was used as the reference drug. The test cell line used in the HCV Replicon Assay was the human hepatoma cell line Huh7 incorporating the HCV replicons synthesized by an outside vendor. 96-well plates were seeded with cells at a density of 7.5×10^3 cells per well in 50 μl of assay media. The compound stock solution was made up freshly in an assay medium (DMEM 1×, Cellgro; cat. #10-013-CV) as a 2× stock. A total of 11 serial 3-fold dilutions of test compounds were prepared from the 2× stock in the assay media ranging from 20 nM-0.2 pM final concentrations. At least 4 hours after seeding the cells, compound treatment was initiated by adding 50 μl of compound dilution to the plates. […] The final DMSO concentration was 0.5%. Cells and inhibitors were incubated for 3 days at 37° C./5% CO2. The media was removed from the plates by gentle tapping. The cells were fixed with 100 μl 1:1 acetone:methanol for 1 minute, washed three times with PBS buffer, and then blocked with 150 μl/well 10% Fetal Bovine Serum (FBS) in PBS for 1 hour at room temperature. The cells were then washed three times with PBS buffer and incubated with 100 μl/well anti-hepatitis C core mAb (Affinity BioReagents; cat. # MA1-080, 1 mg/ml stock diluted 1:4,000 in 10% FBS-PBS) for 2 hours at 37° C. Then, the cells were washed three times with PBS and incubated with 100 μl/well HRP-Goat Anti-Mouse antibody (diluted 1:3.500 in 10% FBS-PBS) for 1 hour at 37° C. The cells were then washed three times with PBS and developed with an OPD solution, 100 μl/well (1 OPD tablet+12 ml citrate/phosphate buffer+5 μl 30% H2O2 per plate), for 30 minutes in the dark at room temperature. The reaction was stopped with 2N H2SO4 (100 μl/well), and the absorbance was measured at A490 X on a Victor^3 V 1420 multilabel counter (Perkin Elmer). The EC50 values were calculated for test compounds from the resulting best-fit equations determined by Xlfit software (Table 1).

[3] = test system: HCV replicon gT1a; experiment: HCV replicon assay, genotype gT1a; format: cell-based; conditions: Hepatitis C virus, mean
Description: as §1, with “The cells were then washed three times with PBS and developed with an OPD solution, 100 μl/well (1 OPD tablet+12 ml citrate/phosphate buffer+5 μl 30% H2O2 per plate), for 30 minutes in the dark at room temperature.” left out

[4] = test system: HCV replicon gT2a; experiment: HCV replicon assay, genotype gT2a; format: cell-based; conditions: Hepatitis C virus, mean
Description: (§2) Anti-HCV activity (EC50) and cytotoxicity (CC50) of prodrugs of general formula 1. The HCV replicon assay was used to determine the antiviral activity of chemotherapeutic agents of general formula 1 (test compounds). Sovaldi (PSI-7977) was used as the reference drug. The test cell line used in the HCV Replicon Assay was the human hepatoma cell line Huh7 incorporating the HCV replicons synthesized by an outside vendor. 96-well plates were seeded with cells at a density of 7.5×10^3 cells per well in 50 μl of assay media. The compound stock solution was made up freshly in an assay medium (DMEM 1×, Cellgro; cat. #10-013-CV) as a 2× stock. A total of 11 serial 3-fold dilutions of test compounds were prepared from the 2× stock in the assay media ranging from 20 nM-0.2 pM final concentrations. At least 4 hours after seeding the cells, compound treatment was initiated by adding 50 μl of compound dilution to the plates. The final concentrations of compound therefore ranged from 10 nM to 0.1 pM when diluted 1:1 in culture media. The final DMSO concentration was 0.5%. Cells and inhibitors were incubated for 3 days at 37° C./5% CO2. The media was removed from the plates by gentle tapping. The cells were fixed with 100 μl 1:1 acetone:methanol for 1 minute, washed three times with PBS buffer, and then blocked with 150 μl/well 10% Fetal Bovine Serum (FBS) in PBS for 1 hour at room temperature. The cells were then washed three times with PBS buffer and incubated with 100 μl/well anti-hepatitis C core mAb (Affinity BioReagents; cat. # MA1-080, 1 mg/ml stock diluted 1:4,000 in 10% FBS-PBS) for 2 hours at 37° C. Then, the cells were washed three times with PBS and incubated with 100 μl/well HRP-Goat Anti-Mouse antibody (diluted 1:3.500 in 10% FBS-PBS) for 1 hour at 37° C. […] The reaction was stopped with 2N H2SO4 (100 μl/well), and the absorbance was measured at A490 X on a Victor^3 V 1420 multilabel counter (Perkin Elmer). The EC50 values were calculated for test compounds from the resulting best-fit equations determined by Xlfit software (Table 1).

[5] = test system: HCV replicon gT3a; experiment: HCV replicon assay, genotype gT3a; format: cell-based; conditions: Hepatitis C virus, mean
Description: as §2, with “The final concentrations of compound therefore ranged from 10 nM to 0.1 pM when diluted 1:1 in culture media.” left out

[6] = test system: HCV replicon gT4a; experiment: HCV replicon assay, genotype gT4a; format: cell-based; conditions: Hepatitis C virus, mean
Description: as §2, with “The final concentrations of compound therefore ranged from 10 nM to 0.1 pM when diluted 1:1 in culture media.” left out

[7] = test system: HCV replicon gT5a; experiment: HCV replicon assay, genotype gT5a; format: cell-based; conditions: Hepatitis C virus, mean
Description: as §2, with “The final concentrations of compound therefore ranged from 10 nM to 0.1 pM when diluted 1:1 in culture media.” left out

[8] = test system: Huh7; experiment: Cytotoxicity in Huh7 cells (ATPLite); format: cell-based, human; conditions: at a concentration of 100 μM
Description: The cytotoxicity of the test compounds was studied in parallel using the same cell line, Huh7. Cell viability was determined using the ATPLite Kit (Perkin-Elmer, Boston, USA), according to manufacturer's instructions. 96-well black/transparent bottom plates were seeded with cells at a density of 7.5×10^3 cells per well in 50 μl medium. After 18 hours, compound treatment was initiated by adding 50 μl of compound dilution into the plates. Each compound dilution was tested in triplicates. The cells and inhibitors were then incubated for 96 hours at 37° C./5% CO2. The plates were washed twice with PBS (0.2 ml/well), and then lysed by adding lysis buffer, 0.05 ml/well (all reagents were included with the ATPLite Kit). After rocking for 5 min on a rocking platform, substrate buffer was added (0.05 ml/well). After additional 5-min incubation, the plates were kept in dark for 10 min, and the luminescence was read using TopCount NXT (Packard, Perkin Elmer). CC50 values for all test compounds were determined using XLfit 4.1 software.

[9] = test system: HCV replicon; conditions: cited from earlier work
[10] = in the clinic; cited from earlier work
[11] = test system: xenograft models of human pancreatic cancer; conditions: in vivo; cited from earlier work
[12] = 28-day toxicity studies in multiple species; cited from earlier work
[13] = test system: HBV; experiment: Anti-HBV activity in the AD-38 cell line using real-time quantitative PCR; format: cell-based
Description: Anti-HBV activity of prodrugs of general formula 1 determination in the AD-38 cell line using a real-time quanitative PCR. a) Cell cultures. HepG2 AD38 cell line, harboring an integrated over-the-length HBV genomic DNA (Lander S, et. al, Antimicrobal Agents and Chemotherapy, 1997, pg. 1715-1720) were provided by Dr. C. Seeger, Fox Chase Cancer Center, Philadelphia, Pa.). Cells were grown in complete media (DMEM/F12 with 2 mM L-Glutamine (Thermo Scientific, Cat #11320033), 10% Fetal Bovine Serum (ThermoFisher Scientific, Cat#), 1% Antibiotic-antimitotic solution (ThermoFisher Scientific, Cat#15240096), and 0.3 μg/ml tetracyclin (Sigma, Cat # T7660-5G). Cells were plated onto Corning Biocoat 96-well plates (Corning, Cat #356407) in 225 ul of complete media (without teracyclin), 20000 cells/well. The prodrugs of general formula 1 were dissolved first in DMSO (Sigma cat. D2650), then in DMEM/F12 and 9 serial 3× dilutions were prepared and added to cells in 22.5 μl. The final prodrugs concentrations ranged from 10 μM to 1 nM. Cells grown in the presence of tetracyclin were used as a positive control, as HBV replication in this cell line is turned off by thetracyclin. Cell plates were incubated for 4 days at 37 C, 5% CO2. b) HBV DNA isolation. After 4 days, viral DNA was isolated from culture supernatants using PureLink® Pro 96 Genomic DNA Purification Kit (ThermoFisher Scientific, Cat # K183104A), according to manufacturer's recommendations. Eluted DNA samples were stored at −20 C. c) Quantitative real-time PCR (qPCR). PCR was performed on the CFX96™ Real-Time System (Bio-Rad, Hercules, Calif.) using AmpliTaq Gold® DNA Polymerase (Applied Biosystems®).
Ct values (cycle threshold) were obtained for each prodrug sample and normalized to untreated cells, according to formula E=(1/(1+100%))̂(Ct[studied prodrug sample]−Ct[K-]), where E is a normalized expression of studied gene, Ct[K-] and Ct[studied prodrug sample] are Ct values of untreated cells and studied prodrug sample. Inhibition curves were obtained and EC50 values were calculated using the Graph Prizm software (Table 3).

[14] = Cytotoxicity (viability, CC50) reported with the anti-HBV test; format: cell-based; conditions: human, HepG2 AD38 cells
[15] = test system: HepG2 AD38 cell line; experiment: as above; format: cell-based; conditions: concentration not given
[16] = test system: HIV; conditions: in PBMCs, relative to TFV; cited from earlier work
[17] = test system: HBV wild-type; conditions: against both the wild-type and resistant mutant; cited from earlier work
[18] = test system: HBV lamivudine-entecavir resistant clone (L180M+M204V+S202G); conditions: resistant mutant (L180M+M204V+S202G); cited from earlier work
[19] = test system: HIV; conditions: most potent and least cytotoxic analog; cited from earlier work

CCOC(=O)[C@H](C)N[P@](=O)(OC[C@@H]1OC[C@H](n2cc(C)c(=O)[nH]c2=O)O1)Oc1ccc(Br)cc1 [DOT-phosphoramidate, D-dioxolane-thymine 5′-(4-bromophenylethyloxy-L-alanyl-phosphate)]
more potency relative to DOT [1]: 75 fold

CC(C)OC(=O)[C@H](C)NP(=O)(OC[C@H]1O[C@@H](n2ccc(=O)[nH]c2=O)[C@](C)(F)[C@@H]1O)Oc1ccccc1 (stereo partly drawn) [PSI-7851, reference compound]
IC50 ([2]; GT1B, read-out: IC50 HCV gT1b 10% FBS (mean)): 61 nM
IC50 ([2]; gT1b, 40% NHS, mean, read-out: IC50 HCV gT1b 40% NHS (mean)): 80 nM
IC50 [3]: 103 nM
IC50 [4]: 39 nM
IC50 [5]: 152 nM
IC50 [6]: 350 nM
IC50 [7]: 395 nM
Cell death [8]: 31%

COc1nc(N)nc2c1ncn2[C@@H]1O[C@H](COP(=O)(N[C@@H](C)C(=O)OCC(C)(C)C)Oc2cccc3ccccc23)[C@@H](O)[C@@]1(C)O (stereo partly drawn) [INX-08189]
EC50 [9]: 10 nM
cardiovascular toxicity [10]: severe cardiovascular toxicity

C[C@H](NP(=O)(OC[C@H]1O[C@@H](n2ccc(N)nc2=O)C(F)(F)[C@@H]1O)Oc1ccccc1)C(=O)OCc1ccccc1 (stereo partly drawn) [NUC-1031, Gemcitabin-5′-phosphoramidate]
tumor volume [11]: significantly reduced tumor volume

CC(C)OC(=O)[C@H](C)N[P@](=O)(CO[C@@H]1C=C(F)C(n2cnc3c(N)ncnc32)O1)Oc1ccccc1 (stereo partly drawn) [GS-9131]
renal findings [12]: no significant renal findings

C=CCOC(=O)[C@H](C)N[P@](=O)(OC[C@@H]1O[C@H](n2cc(C)c(=O)[nH]c2=O)[C@H](F)[C@H]1O)Oc1ccccc1 [1.2(67), allyl (S)-2-{(S)-[(2S,3S,4R,5S)-4-fluoro-3-hydroxy-5-(5-methyl-2,4-dioxo-3,4-dihydro-2H-pyrimidin-1-yl)-tetrahydro-furan-2-ylmethoxy]-phenoxy-phosphorylamino}-propanoate]
EC50 ([13]; Hepatitis B virus, 96 h): 760 ± 110 nM
inhibition, % ([13]; against HBV, concentration not given): 88%
CC50 [14]: > 30000 nM
viability, % [15]: 95%

CC(C)OC(=O)[C@H](C)N[P@](=O)(CO[C@H](C)Cn1cnc2c(N)ncnc21)Oc1ccccc1 [TAF, (S)-Isopropyl 2-(((S)-((((R)-1-(6-amino-9H-purin-9-yl)propan-2-yl)oxy)methyl)(phenoxy)-phosphoryl)amino)propanoate]
more potent than TFV [16]: 400 fold

2′-Fluoro-6′-methylene-carbocyclic adenosine phosphoramidate [5′-phosphoramidate of FMCA]
more potent than FMCA [17]: 10 fold
EC50 [18]: 54 nM

CCOC(=O)[C@H](C)N[P@](=O)(OC[C@@H]1OC[C@H](n2cnc3c(NC4CC4)ncnc32)O1)Oc1ccccc1 [dioxolane-A mono-phosphoramidate]
EC50 [19]: 86 nM
